Results as given in ChEMBL document CHEMBL4007507 (J Med Chem, 2017).
Active and inactive are the calls of the source. No cut-off for these calls is given here.

What was measured:
[1] = in vivo; settings: rat, iv, 10 mg/kg
[2] = in vivo; settings: rat, po, 25 mg/kg
[3] = in vivo; settings: rat, iv, 10 mg/kg; remark: listed apart in the source
[4] = in vivo; settings: rat, po, 25 mg/kg; remark: listed apart in the source
[5] = tested on: SJSA-1; experiment: cells; settings: Homo sapiens
[6] = tested on: SJSA-1; settings: Homo sapiens, 50 mg/kg
[7] = in vivo; settings: rat, po, 25 mg/kg; remark: listed apart in the source
[8] = tested on: SJSA-1; settings: Homo sapiens
[9] = in vivo; settings: rat, iv, 10 mg/kg; remark: listed apart in the source
[10] = tested on: SJSA-1; settings: Homo sapiens, 30 mg/kg
[11] = tested on: RS4-11; experiment: cells; settings: Homo sapiens
[12] = tested on: SJSA-1; settings: Homo sapiens, 100 mg/kg
[13] = tested on: SAOS-2; experiment: cells; settings: Homo sapiens
[14] = tested on: HCT-116; experiment: cells; settings: Homo sapiens
[15] = tested on: LNCaP; experiment: cells; settings: Homo sapiens
[16] = tested on: HCT-116; experiment: cells; settings: Homo sapiens; remark: listed apart in the source
[17] = tested on: PC-3; experiment: cells; settings: Homo sapiens
[18] = physchem; settings: 1:1 MeOH/H2O solution
[19] = in vivo; settings: rat, iv, 5 mg/kg
[20] = in vivo; settings: rat, iv, 5 mg/kg; remark: listed apart in the source
[21] = physchem; settings: 1:1 CH3CN/H2O solution
[22] = in vivo; settings: rat, iv, 5 mg/kg; remark: listed apart in the source
[23] = physchem; settings: cell culture media
[24] = tested on: RS4-11; settings: Homo sapiens

SMILES: CC1(C)CCC2(CC1)N[C@@H](C(=O)Nc1ccc(C(=O)O)cc1)[C@H](c1cccc(Cl)c1F)[C@]21C(=O)Nc2cc(Cl)ccc21
- Vd [1]: 2.45 L/kg
- half-life [2]: 4.5 h
- clearance [3]: 11.5 mL/min/kg
- AUC [4]: 10200 ng·h/mL
- IC50 [5]: 13 nM
- TGI [6]: Active
- Cmax [7]: 968 ng/mL
- TGI [8]: Dose-dependent effect
- AUC [9]: 14800 ng·h/mL

SMILES: COc1cc(NC(=O)[C@@H]2NC3(CCCCC3)[C@@]3(C(=O)Nc4cc(Cl)ccc43)[C@H]2c2cccc(Cl)c2F)ccc1C(=O)O
- IC50 [5]: 120 nM

SMILES: Cc1nnc([C@H]2[C@H](c3cccc(Cl)c3F)[C@]3(C(=O)Nc4cc(Cl)ccc43)C3(CCCCC3)N2C)s1
- IC50 [5]: 3000 nM

SMILES: CS(=O)(=O)NC(=O)c1ccc(NC(=O)[C@@H]2NC3(CCCCC3)[C@@]3(C(=O)Nc4cc(Cl)ccc43)[C@H]2c2cccc(Cl)c2F)cc1
- IC50 [5]: 5800 nM

SMILES: CN1[C@@H](c2nc(C(=O)O)co2)[C@H](c2cccc(Cl)c2F)[C@]2(C(=O)Nc3cc(Cl)ccc32)C12CCCCC2
- IC50 [5]: > 10000 nM

SMILES: CN1[C@@H](C(=O)NC23CCC(C(=O)O)(CC2)CC3)[C@H](c2cccc(Cl)c2F)[C@]2(C(=O)Nc3cc(Cl)ccc32)C12CCCCC2
- TGI [10]: Active
- Vd [1]: 1.1 L/kg
- half-life [2]: 3.9 h
- clearance [3]: 5.87 mL/min/kg
- AUC [4]: 35200 ng·h/mL
- AUC [9]: 28800 ng·h/mL

SMILES: O=C(O)Cc1ccc(NC(=O)[C@@H]2NC3(CCCCC3)[C@@]3(C(=O)Nc4cc(Cl)ccc43)[C@H]2c2cccc(Cl)c2F)cc1
- IC50 [5]: 760 nM

SMILES: O=C(N[C@H]1C[C@H](C(=O)O)C1)[C@@H]1NC2(CCCCC2)[C@@]2(C(=O)Nc3cc(Cl)ccc32)[C@H]1c1cccc(Cl)c1F
- IC50 [5]: 220 nM

SMILES: O=C(O)c1ccc(NC(=O)[C@@H]2NC3(CCCCC3)[C@@]3(C(=O)Nc4cc(Cl)ccc43)[C@H]2c2cccc(Cl)c2F)o1
- IC50 [5]: 6200 nM

SMILES: COc1cc(C(N)=O)ccc1NC(=O)[C@@H]1NC2(CCCCC2)[C@@]2(C(=O)Nc3cc(Cl)ccc32)[C@H]1c1cccc(Cl)c1F
- IC50 [5]: 120 nM

SMILES: Cc1oc([C@H]2[C@H](c3cccc(Cl)c3F)[C@]3(C(=O)Nc4cc(Cl)ccc43)C3(CCCCC3)N2C)nc1C(=O)O
- IC50 [5]: 6000 nM

SMILES: O=C(NC12CCC(C(=O)O)(CC1)CC2)[C@@H]1NC2(CCC(F)(F)CC2)[C@@]2(C(=O)Nc3cc(Cl)ccc32)[C@H]1c1cccc(Cl)c1F
- IC50 [5]: 170 nM

SMILES: CC(=O)N1CC(NC(=O)[C@@H]2NC3(CCCCC3)[C@@]3(C(=O)Nc4cc(Cl)ccc43)[C@H]2c2cccc(Cl)c2F)C1
- IC50 [5]: 240 nM

SMILES: Cc1noc([C@H]2[C@H](c3cccc(Cl)c3F)[C@]3(C(=O)Nc4cc(Cl)ccc43)C3(CCCCC3)N2C)n1
- IC50 [5]: 12100 nM

SMILES: O=C(O)c1ccc(NC(=O)[C@@H]2NC3(CCCCC3)[C@@]3(C(=O)Nc4cc(Cl)ccc43)[C@H]2c2cccc(Cl)c2F)cn1
- IC50 [5]: 240 nM

SMILES: O=C(NC12CCC(C(=O)O)(CC1)CC2)[C@@H]1NC2(CCCCC2)[C@@]2(C(=O)Nc3cc(Cl)ccc32)[C@H]1c1cccc(Cl)c1F
- IC50 [11]: 62 nM
- Vd [1]: 0.734 L/kg
- TGI [12]: Active
- half-life [2]: 4.3 h
- clearance [3]: 1.98 mL/min/kg
- IC50 [13]: 26700 nM
- IC50 [5]: 89 nM
- IC50 [14]: 137 nM
- TGI [6]: Active
- IC50 [15]: 36 nM
- IC50 [16]: 14000 nM
- AUC [9]: 82200 ng·h/mL
- IC50 [17]: 12300 nM

SMILES: O=C(NC[C@H]1CC[C@H](C(=O)O)CC1)[C@@H]1NC2(CCCCC2)[C@@]2(C(=O)Nc3cc(Cl)ccc32)[C@H]1c1cccc(Cl)c1F
- IC50 [5]: 1900 nM

SMILES: O=C(NC12CC(C(=O)O)(C1)C2)[C@@H]1NC2(CCCCC2)[C@@]2(C(=O)Nc3cc(Cl)ccc32)[C@H]1c1cccc(Cl)c1F
- IC50 [5]: 540 nM

SMILES: NS(=O)(=O)c1ccc(NC(=O)[C@@H]2NC3(CCCCC3)[C@@]3(C(=O)Nc4cc(Cl)ccc43)[C@H]2c2cccc(Cl)c2F)cc1
- IC50 [5]: 11200 nM

SMILES: CS(=O)(=O)c1ccc(NC(=O)[C@@H]2NC3(CCCCC3)[C@@]3(C(=O)Nc4cc(Cl)ccc43)[C@H]2c2cccc(Cl)c2F)cc1
- IC50 [5]: 140 nM

SMILES: O=C(NC1CCS(=O)(=O)CC1)[C@@H]1NC2(CCCCC2)[C@@]2(C(=O)Nc3cc(Cl)ccc32)[C@H]1c1cccc(Cl)c1F
- IC50 [5]: 540 nM

SMILES: CS(=O)(=O)NC(=O)[C@@H]1NC2(CCCCC2)[C@@]2(C(=O)Nc3cc(Cl)ccc32)[C@H]1c1cccc(Cl)c1F
- IC50 [5]: 8900 nM

SMILES: CC1(C)CCC2(CC1)N[C@@H](C(=O)N[C@H]1CC[C@H](O)CC1)[C@H](c1cccc(Cl)c1F)[C@]21C(=O)Nc2cc(Cl)ccc21
- IC50 [5]: 48 nM

SMILES: CC(C)(C)C[C@@H]1N[C@@H](C(=O)N[C@H]2CC[C@H](O)CC2)[C@H](c2cccc(Cl)c2F)[C@]12C(=O)Nc1cc(Cl)ccc12 [SAR-405838]
- remaining at 168 h [18]: 93 to 96%
- half-life [2]: 1.6 h
- Vd [19]: 2.98 L/kg
- AUC [20]: 4630 ng·h/mL
- remaining at 168 h [21]: 93 to 96%
- clearance [22]: 17.2 mL/min/kg
- TGI [6]: Active
- remaining at 168 h [23]: 93 to 96%

SMILES: O=C(O)c1ccc(NC(=O)[C@@H]2NC3(CCCCC3)[C@@]3(C(=O)Nc4cc(Cl)ccc43)[C@H]2c2cccc(Cl)c2F)c(F)c1
- IC50 [5]: 230 nM

SMILES: O=C(O)CCCNC(=O)[C@@H]1NC2(CCCCC2)[C@@]2(C(=O)Nc3cc(Cl)ccc32)[C@H]1c1cccc(Cl)c1F
- IC50 [5]: 1400 nM

SMILES: O=C(N[C@H]1CC[C@H](C(=O)O)CC1)[C@@H]1NC2(CCCCC2)[C@@]2(C(=O)Nc3cc(Cl)ccc32)[C@H]1c1cccc(Cl)c1F
- IC50 [5]: 150 nM
- TGI [6]: Active

SMILES: CCN1[C@@H](C(=O)NC23CCC(C(=O)O)(CC2)CC3)[C@H](c2cccc(Cl)c2F)[C@]2(C(=O)Nc3cc(Cl)ccc32)C12CCCCC2 [ALRIZOMADLIN]
- TGI [24]: Dose-dependent effect
- TGI [10]: Active
- Vd [1]: 1.25 L/kg
- half-life [2]: 4.6 h
- clearance [3]: 4.28 mL/min/kg
- IC50 [13]: 22700 nM
- AUC [4]: 39100 ng·h/mL
- IC50 [5]: 60 nM
- IC50 [14]: 104 nM
- IC50 [15]: 18 nM
- IC50 [16]: 8000 nM
- AUC [9]: 38300 ng·h/mL
- IC50 [17]: 22000 nM

SMILES: CN1[C@@H](c2nc(CC(=O)O)cs2)[C@H](c2cccc(Cl)c2F)[C@]2(C(=O)Nc3cc(Cl)ccc32)C12CCCCC2
- IC50 [5]: 2690 nM

SMILES: O=C(O)c1cccc(NC(=O)[C@@H]2NC3(CCCCC3)[C@@]3(C(=O)Nc4cc(Cl)ccc43)[C@H]2c2cccc(Cl)c2F)c1
- IC50 [5]: 760 nM

SMILES: CS(=O)(=O)NC(=O)C12CCC(NC(=O)[C@@H]3NC4(CCCCC4)[C@@]4(C(=O)Nc5cc(Cl)ccc54)[C@H]3c3cccc(Cl)c3F)(CC1)CC2
- IC50 [5]: 370 nM

SMILES: CN1[C@@H](c2nc(C(=O)O)cs2)[C@H](c2cccc(Cl)c2F)[C@]2(C(=O)Nc3cc(Cl)ccc32)C12CCCCC2
- IC50 [5]: > 10000 nM

SMILES: O=C(O)c1ccc(NC(=O)[C@@H]2NC3(CCCCC3)[C@@]3(C(=O)Nc4cc(Cl)ccc43)[C@H]2c2cccc(Cl)c2F)cc1
- Vd [1]: 2.14 L/kg
- half-life [2]: 4 h
- clearance [3]: 19.3 mL/min/kg
- AUC [4]: 6800 ng·h/mL
- TGI [6]: Active
- Cmax [7]: 1550 ng/mL
- AUC [9]: 8630 ng·h/mL

SMILES: Cc1nnc([C@H]2[C@H](c3cccc(Cl)c3F)[C@]3(C(=O)Nc4cc(Cl)ccc43)C3(CCCCC3)N2C)o1
- IC50 [5]: 5000 nM

SMILES: O=C(O)c1ccc(NC(=O)[C@@H]2NC3(CCCCC3)[C@@]3(C(=O)Nc4cc(Cl)ccc43)[C@H]2c2cccc(Cl)c2F)cc1F
- IC50 [5]: 190 nM

SMILES: COc1cc(C(=O)O)ccc1NC(=O)[C@@H]1NC2(CCCCC2)[C@@]2(C(=O)Nc3cc(Cl)ccc32)[C@H]1c1cccc(Cl)c1F
- IC50 [5]: 61 nM

SMILES: O=C(N[C@H]1CC[C@@H](C(=O)O)CC1)[C@@H]1NC2(CCCCC2)[C@@]2(C(=O)Nc3cc(Cl)ccc32)[C@H]1c1cccc(Cl)c1F
- IC50 [5]: 1740 nM
